Test results as given in patent US20020192256A1, “Water miscible pesticide containing a synergistic cocktail of plant alkaloids” (priority 2000, published 2002).

Test system: small green leafhoppers
Assay: Insecticidal activity of pesticides on small green leafhoppers on tea trees (Table IX)
Format: in vivo
Set-up: 1d after Spray Efficacy (%) / 3d after Spray Efficacy (%) / 7d after Spray Efficacy (%): concentration or dose not given beside the values
Method: Ninety-eight kilograms of this pesticide was mixed with 2 Kg of imidacloprid with low toxicity to mammals. The mixture was tested for its insecticidal efficacy on small green leafhoppers on tea trees and compared with those of 40% dichlorophos emulsion and imidacloprid, a highly toxic pesticide, and the extract of Sophora alopecuroides as described in section 1) under “Extract of alkaloids from plants”.

## COP(=O)(OC)OC=C(Cl)Cl [Dichlorphos, dichlorophos]
  1d after Spray Efficacy (%): 68.8%
  1d after Spray Pests +/− Rate (%): −43.48%
  3d after Spray Efficacy (%): 64.43%
  3d after Spray Pests +/− Rate (%): −60.87%
  7d after Spray Efficacy (%): 60.32%
  7d after Spray Pests +/− Rate (%): −60.32%

## O=[N+]([O-])NC1=NCCN1Cc1ccc(Cl)nc1 [Imidacloprid, imidacloprid]
  1d after Spray Efficacy (%): 67.8%
  1d after Spray Pests +/− Rate (%): −48.47%
  3d after Spray Efficacy (%): 61.3%
  3d after Spray Pests +/− Rate (%): −60.3%
  7d after Spray Efficacy (%): 60.7%
  7d after Spray Pests +/− Rate (%): −60.7%
